Values of other authors as cited in patent publication US20090093506A1, “Copper antagonist compositions” (priority 2007, published 2009).

Legend:
[1] = not given; remark: listed apart in the source
[2] = solution of the free base itself

CC(C)(S)[C@@H](N)C(=O)O [Penicillamine, 3-mercapto-D-valine]
solubility in acetone (acetone): insoluble | solubility in alcohol (alcohol): slightly soluble | solubility in benzene (benzene): insoluble | solubility in carbon tetrachloride (carbon tetrachloride): insoluble | solubility in ether (ether): insoluble | solubility in water (water): freely soluble

CC(=O)[O-].CC(=O)[O-].[Zn+2] [Zinc acetate]
long-term or major side effects ([1]; patients with Wilson's disease): has not shown any long-term or major side effects

COCc1c(C(C)C)nc(C(C)C)c(/C=C/[C@@H](O)C[C@@H](O)CC(=O)O)c1-c1ccc(F)cc1 [cerivastatin]
rhabdomyolysis ([1]; patients receiving the drug, withdrawn from the U.S. market August 2001): seen to occur more often

NCCNCCNCCN [trientine, triethylenetetramine]
pH of a solution [2]: 14
